The record followed here is US8258130B2 (Sanofi, priority 2007, dated 2012).

Sequence of human h-PGDS (O60760 whole entry): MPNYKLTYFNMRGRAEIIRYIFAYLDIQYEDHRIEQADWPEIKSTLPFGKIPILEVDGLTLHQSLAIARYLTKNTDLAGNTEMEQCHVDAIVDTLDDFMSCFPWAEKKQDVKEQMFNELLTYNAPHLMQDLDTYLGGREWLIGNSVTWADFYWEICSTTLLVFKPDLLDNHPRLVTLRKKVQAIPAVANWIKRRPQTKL

The assay concerns the target human h-PGDS (Homo sapiens, UniProt O60760). Description: Enzyme Immunoassay (EIA) method, inhibition of hematopoietic PGD2 synthase. The class given is biochemical. To be noted: EIA assay, PGD2 formed from PGH2 by human h-PGDS. The procedure:
Assay 2: Enzyme Immunoassay (EIA) Method
• a. Preparation of 0.1M K2HPO4/KH2PO4 buffer (pH 7.4) • Prepare 0.1 M KH2PO4 from 1M KH2PO4 (Sigma, Cat# P-8709) • Prepare 0.1 M K2HPO4 from powder of K2HPO4 (Fisher, BP363-500) • Mix 0.1 M K2HPO4 with 0.1 M KH2PO4 to adjust pH to 7.4. • b. Preparation of 0.5% γ-globulin • Add 0.1 g of γ-globulin (Sigma, Cat# G-5009) to 20 mL 0.1 M K2HPO4/KH2PO4 buffer (pH 7.4) and make 1-mL/vial aliquots and store in −80° C. • c. Preparation of 100 mM GSH • Add 307 mg of GSH (Sigma, Cat# G-6529) to 10 mL 0.1 M K2HPO4/KH2PO4 buffer (pH 7.4) and store at −80° C. • d. Preparation of Reaction buffer: • 198 mL of 0.1M K2HPO4/KH2PO4 buffer (pH 7.4) • 2 mM GSH—Prepared from 100 mM GSH • 0.4 g Glycerol • 2 mL of 0.5% γ-globulin • Add 0.4 g of glycerol and 2 mL of 0.5% γ-globulin to 198 mL of 0.1 M K2HPO4/KH2PO4 • buffer (pH7.4). • Add 0.4 mL of 100 mM GSH to 19.6 mL reaction buffer before the assay (enough for two 96-well plates). • e. Preparation of FeCl2/citric acid stopping solution: (8 mg/mL FeCl2, 0.1 M citric acid) • Add 40 mg fresh FeCl2 (IGN, Cat# 158046) to 5 mL 0.1 M citric acid (Sigma, Cat# C0759). • f. Preparation of MOX reagent: • 10% EtOH—Add 1 mL of EtOH to 9 mL of ultra pure H2O • Dissolve 0.1 g of methoxyl amine (Cayman, Cat# 400036/) in 10% EtOH (10 mL). • Add 0.82 g of sodium acetate (Cayman, Cat#400037) to MOX solution and dissolve. II. Materials and Method • Dimethylsulfoxide (DMSO; Sigma; Cat# D2650) • Prostaglandin D2-MOX express EIA kit (Caymen Chemical, Catalog No. 500151)
Before the assay, cool down 10 mL of acetone in polypropylene tubes and empty 96 well plates in ice. All the procedures except compound dilution are performed on ice.
• 1. Dilute compound in DMSO
• 2. Dilute 2 μL of each above concentration of compound to 38 μL of reaction buffer in 96-well plates and mix. IV. Enzyme and Substrate Solution Preparation • 1 Preparation of 0.39 ng/μL enzyme solution (0.35 ng/μL at final after compound addition). • Mix 4 μL of 4 mg/mL human h-PGDS with 396 μL of reaction buffer (to give enzyme concentration 40 μg/mL). Add 46.8 μL of 40 μg/mL h-PGDS to 4.753 mL of reaction buffer to give a total volume of 4.8 mL • 2. Preparation of Substrate Solution (PGH2): Add 0.375 mL of 0.1 mg/mL of PGH2 to 1.625 mL acetone. V. Enzyme Reaction: • 1. Add 60 μL of enzyme solution to compound well and positive control (without compound) in U-bottom polypropylene plate on ice. • 2. Add 60 μL of reaction buffer and 6.6 μL of 5% DMSO in reaction buffer into negative control wells in the plate. • 3. Add 6.6 μL of diluted compound in reaction buffer to the compound wells and mix. • 4. Add 6.6 μL of 5% DMSO in reaction buffer to the positive control well. • 5. Incubate the plate in ice for at least 30 min. • 6. Add 20 μL of substrate (PGH2) solution to compound, negative and positive control wells in the U-bottom 96 well plate on ice. • 7. Dry the plate in cold room for about 25-28 min. • 8. Pipette 45 μL of enzyme solution (above) into 96-wells with dried PGH2 and mix 3 times. Incubate on the ice for 1 min. • 9. Add 45 μL of FeCl2 solution into each wells and mix. • 10. Add 90 μL of MOX solution and mix. • 11. Incubate for 30 min at 60° C. • 12. Dilute the samples 2500× with EIA buffer. VI. EIA Assay • Perform the assay according to the procedure in EIA kit provided by Cayman. Total PGD2 levels (pg/mL) were determined in the samples by EIA kits (Caymen Chemical, Catalog No. 500151) Calculate Amount of PGD2 as Below • Calculated % Positive control according to the equation below; % Positive control=(Compound value−Negative control)/(Positive value−Negative control value)×100. […]
As usually defined, the IC50 is the concentration needed to halve the response being measured. High values mean weaker potency, low ones greater potency. `Cc1nc(-c2ccccn2)ncc1C(=O)Nn1cc(C)c2cc(F)ccc21` [Example 3, 4-Methyl-2-pyridin-2-yl-pyrimidine-5-carboxylic acid (5-fluoro-3-methyl-indol-1-yl)amide]: half-maximal inhibition (IC50) required 7 nM. Consider `Cc1cn(NC(=O)c2cnc(-c3cccnc3)nc2)c2ccc(F)cc12` [Example 6, 2-Pyridin-3-yl-pyrimidine-5-carboxylic acid (5-fluoro-3-methyl-indol-1-yl)-amide], for which the concentration for half-maximal inhibition (IC50) worked out at 10 nM. Next, `Cc1nc(-c2cccc(F)c2)ncc1C(=O)Nn1cc(C)c2cc(F)ccc21` [Example 10, 2-(3-Fluoro-phenyl)-4-methyl-pyrimidine-5-carboxylic acid (5-fluoro-3-methyl-indol-1-yl)-amide]: 6 nM. Turning to `Cc1nc(-c2ccccn2)ncc1C(=O)Nn1c(C)cc2cc(F)ccc21` [Example 12, 4-Methyl-2-pyridin-2-yl-pyrimidine-5-carboxylic acid (5-fluoro-2-methyl-indol-1-yl)-amide], inhibition was half-maximal at 8 nM (IC50). `O=C(NN1CCN(C(=O)OCc2ccccc2)CC1=O)c1cnc(-c2ccccc2)nc1` [Example 20, 3-Oxo-4-[(2-phenyl-pyrimidine-5-carbonyl)-amino]-piperazine-1-carboxylic acid benzyl ester]: the IC50 worked out at 104 nM. In turn, `O=C(Nn1ccc2c(F)cccc21)c1cnc(-c2cccc(F)c2)nc1` [Example 31, 2-(3-Fluorophenyl)pyrimidine-5-carboxylic acid-(4-fluoroindol-1-yl)amide] came in with a concentration for half-maximal inhibition (IC50) of 11 nM.

`Cc1nc(-c2cccc(F)c2)ncc1C(=O)Nn1cc(-c2nnn[nH]2)c2cc(F)ccc21` [Example 42, 2-(3-Fluoro-phenyl)-4-methyl-pyrimidine-5-carboxylic acid [5-fluoro-3-(1H-tetrazol-5-yl)-indol-1-yl]-amide] gave an IC50 of 5 nM.

For `O=C(Nn1cnnc1)c1cnc(-c2ccccc2)nc1` [Example 43, 2-Phenyl-pyrimidine-5-carboxylic acid [1,2,4]triazol-4-ylamide], the half-inhibitory concentration (IC50) worked out at 263 nM.

In turn, `O=C(NNc1ccccc1F)c1cnc(-c2ccccc2)nc1` [Example 45, 2-Phenyl-pyrimidine-5-carboxylic acid N′-(2-fluoro-phenyl)-hydrazide] returned a half-inhibitory concentration (IC50) of 12 nM. The compound `O=C(NN1CCOCC1=O)c1cnc(-c2ccccc2)nc1` [Example 47, 2-Phenyl-pyrimidine-5-carboxylic acid (3-oxo-morpholin-4-yl)-amide] registered a half-maximal inhibitory concentration (IC50) of 55 nM.

`Cc1nc(-c2ncc(C(=O)NN3CCN(CCO)CC3)cn2)no1` [Example 48, 2-(5-Methyl-[1,2,4]oxadiazol-3-yl)-pyrimidine-5-carboxylic acid [4-(2-hydroxy-ethyl)-piperazin-1-yl]-amide] displayed an IC50 of 461 nM. In turn, `O=C(NN1CCOCC1)c1cnc(C(=O)c2ccccc2)nc1` [Example 50, 2-Benzoyl-pyrimidine-5-carboxylic acid morpholin-4-ylamide] registered a concentration for half-maximal inhibition (IC50) of 342 nM. In turn, `O=C(NN1CCN(CCO)CC1)c1cnc(C(=O)c2ccccc2)nc1` [Example 51, 2-Benzoyl-pyrimidine-5-carboxylic acid [4-(2-hydroxy-ethyl)-piperazin-1-yl]-amide] returned an IC50 of 665 nM. `O=C(NN1CCCCC1=O)c1cnc(-c2ccccc2)nc1` [Example 56, 2-Phenyl-pyrimidine-5-carboxylic acid N′-(2-oxo-piperidin-1-yl)-amide]: the half-inhibitory concentration (IC50) was 55 nM. `CN(NC(=O)c1cnc(-c2ccccc2)nc1)C1CCCCC1` [Example 57, 2-Phenyl-pyrimidine-5-carboxylic acid N′-cyclohexyl-N′-methyl-hydrazide] returned a half-maximal inhibitory concentration (IC50) of 147 nM.

`O=C(NN1CCOCC1)c1cnc(Oc2ccccc2)nc1` [Example 58, 2-Phenyoxy-pyrimidine-5-carboxylic acid N′-morpholin-4-yl-amide]: the half-maximal inhibitory concentration (IC50) was determined as 227 nM. Take `COc1cccc(-c2ncc(C(=O)NN3CC(C)=NNC3=O)cn2)c1` [Example 59, 2-(3-Methoxy-phenyl)-pyrimidine-5-carboxylic acid (6-methyl-3-oxo-2,5-dihydro-3H-[1,2,4]triazin-4-yl)-amide]: it took 175 nM to reach half-maximal inhibition (IC50). Then `O=C(Nn1cc(Br)c(=O)[nH]c1=O)c1cnc(-c2ccccc2)nc1` [Example 72, 2-Phenyl-pyrimidine-5-carboxylic acid (5-bromo-2,4-dioxo-3,4-dihydro-2H-pyrimidin-1-yl)-amide], with 108 nM; and `O=C(NN1CC(CN2CCOCC2)OC1=O)c1cnc(-c2ccccc2)nc1` (stereo not shown) [Example 75, 2-Phenyl-pyrimidine-5-carboxylic acid (5-morpholin-4-ylmethyl-2-oxo-oxazolidin-3-yl)-amide], with 20 nM; and `O=C(NN1CCOC1=O)c1cnc(-c2ccccc2)nc1` [Example 77, 2-Phenyl-pyrimidine-5-carboxylic acid (2-oxo-oxazolidin-3-yl)-amide], with 49 nM. Then `O=C(NN1CCc2ccccc21)c1cnc(-c2ccccc2)nc1` [Example 82, 2-Phenyl-pyrimidine-5-carboxylic acid (2,3-dihydro-indol-1-yl)-amide], with 2 nM; and `O=C(NN1CCN(C2CCOC2=O)CC1)c1cnc(-c2ccccc2)nc1` (stereo not shown) [Example 87, 2-Phenyl-pyrimidine-5-carboxylic acid [4-(2-oxo-tetrahydro-furan-3-yl)-piperazin-1-yl]-amide], with 26 nM.

In the case of `O=C(NN1CCN(C(=O)C(F)(F)F)CC1)c1cnc(-c2ccccc2)nc1` [Example 88, 2-Phenyl-pyrimidine-5-carboxylic acid [4-(2,2,2-trifluoro-acetyl)-piperazin-1-yl]-amide], the IC50 came to 57 nM. As for `O=C(NN1CCN(CC(=O)N2CCOCC2)CC1)c1cnc(-c2ccccc2)nc1` [Example 90, 2-Phenyl-pyrimidine-5-carboxylic acid [4-(2-morpholin-4-yl-2-oxo-ethyl)-piperazin-1-yl]-amide], the half-inhibitory concentration (IC50) is 832 nM. As for `O=C(NN1CCc2ccccc21)c1cnc(-c2cccc(F)c2)nc1` [Example 91, 2-(3-Fluoro-phenyl)-pyrimidine-5-carboxylic acid (2,3-dihydro-indol-1-yl)-amide], the IC50 was 3 nM.

Regarding `O=C(NN1CCCCC1)c1cnc(-c2cccc(F)c2)nc1` [Example 92, 2-(3-Fluoro-phenyl)-pyrimidine-5-carboxylic acid piperadin-1-yl-amide], the IC50 was 19.5 nM. `Cc1nc(-c2ccccc2)ncc1C(=O)NN1CCc2ccccc21` [Example 95, 4-Methyl-2-phenyl-pyrimidine-5-carboxylic acid (2,3-dihydro-indol-1-yl)-amide] yielded a concentration for half-maximal inhibition (IC50) of 5.5 nM. Turning to `CC1Cc2ccccc2N1NC(=O)c1cnc(-c2ccccc2)nc1` (stereo not shown) [Example 99, 2-Phenyl-pyrimidine-5-carboxylic acid (2-methyl-2,3-dihydro-indol-1-yl)-amide], the IC50 was determined as 4 nM.
